# Read-outs that look alike come from different tables or passages of the source. Bridge positions count the residues as written; N and C are the ends. Square brackets hold non-standard residues; d marks the D form. Peptide text beside a SMILES is read from it. * marks the point of attachment. Ileψ(thiazoline)Cys = CC[C@H](C)[C@H](N)C1=N[C@H](C(=O)*)CS1; dOrn = NCCC[C@@H](N)C(=O)O
# Columns and labels:
# [1] = tested on: B. atropheus spores, Pseudomonas aeruginosa, and Staphylococcus aureus; assay: Bacterial suspension assay, test organisms not told apart; assay type: cell-based; details: Bacitracin 33 Units/ml; over the time periods tested
# Experimental: Dermacyn is a ready to use product, therefore performing dilutions during testing was not required.
# A purchased spore suspension of B. atropheus at 2.5×10^7/ml was used for testing. In addition fresh suspensions of Pseudomonas aeruginosa, and Staphylococcus aureus were prepared and measured using a spectrophotometer to ensure the titer was acceptable
# […] of test substance was added to 100 ul of microbe suspension. The test mixture was held at 20° C. for the contact times of 20 seconds, 5 minutes, and 20 minutes. […] (entire mixture) was added to 9.0 ml of neutralizer for 20 minutes (this is the original neutralization tube or ONT) 1.0 ml of the neutralized test mixture was plated on Tryptic Soy Agar in duplicate for the 5 minute and 20 minute contact times. Additional dilutions and spread plates were used for the 20 second time point, to achieve countable plates.
# All plates were incubated at 30° C.-35° C. for a total of 3 days and were evaluated after each day of incubation.
# primary HDF cultures = details: human, 1 month, 5 µM
# [2] = tested on: human diploid fibroblasts (HDFs); assay: Cell viability, apoptosis and necrosis by flow cytometry; assay type: cell-based; details: 880 mM
# Experimental: HP is known to be toxic to eukaryotic cells, increasing apoptosis and necrosis and reducing cellular viability. […] HDF cultures were obtained from three different foreskins, which were pooled and cryopreserved together for the purpose of this study. Only diploid cells were used for all experiments. […] Simultaneous analyses of these parameters were performed in the same cell populations by flow cytometry using: […] B) Annexin V-FITC; and C) Propidium iodide. FIG. 4A-4C disclose percentage values expressed as mean±SD (n=3).
# [3] = tested on: murine polychromatic erythrocytes
# Experimental: The mammalian in vivo micronucleus test is used for the identification of substances which cause damage to chromosomes or the mitotic apparatus of murine polychromatic erythrocytes. This damage results in the formation of “micronuclei,” intracellular structures containing lagging chromosome fragments or isolated whole chromosomes. […] The positive control mice received a single intraperitoneal injection of cyclophosphamide (8 mg/mL, 12.5 ml/kg) on day 2. All mice were observed immediately after injection for any adverse reactions. […] On day 3, all mice were weighed and terminated.
# The femurs were excised from the terminated mice, the bone marrow was extracted, and duplicate smear preparations were performed for each mouse. The bone marrow slides for each animal were read at 40× magnification. The ratio of polychromatic erythrocytes (PCE) to normochromatic erythrocytes (NCE), an index of bone marrow toxicity, was determined for each mouse by counting a total of at least 200 erythrocytes. Then a minimum of 2000 scoreable PCE per mouse were evaluated for the incidence of micronucleated polychromatic erythrocytes. Statistical analysis of the data were done using the Mann and Whitney test (at 5% risk threshold) from a statistical software package (Statview 5.0, SAS Institute Inc., USA).
smiles,measurement,setting,value
CC[C@H](C)[C@H](N)C1=N[C@H](C(=O)N[C@@H](CC(C)C)C(=O)N[C@H](CCC(=O)O)C(=O)N[C@H](C(=O)N[C@H]2CCCCNC(=O)[C@H](CC(N)=O)NC(=O)[C@@H](CC(=O)O)NC(=O)[C@H](Cc3cnc[nH]3)NC(=O)[C@@H](Cc3ccccc3)NC(=O)[C@H]([C@@H](C)CC)NC(=O)[C@@H](CCCN)NC2=O)[C@@H](C)CC)CS1 [Bacitracin] ({Ileψ(thiazoline)Cys}-L[dE]IK[dOrn]I[dF]H[dD]N; lactam 4-C),lowering of bacterial or spore populations,[1],no evidence of lowering the bacterial or spore populations
"OO [HP, hydrogen peroxide]",Cells with SA-β-Gal expression,primary HDF cultures,86%
same,"Apoptosis, cells exposing Annexin-V",[2]; 5 min,15%
same,"Apoptosis, cells exposing Annexin-V",[2]; 30 min,20%
O=P1(N(CCCl)CCCl)NCCCO1 (centres unmarked) [cyclophosphamide],number of polychromatic erythrocytes bearing micronuclei,"[3]; females, negative control 1.0",12.6
same,PCE/NCE ratio,"[3]; females, negative control 1.02",0.73
same,number of polychromatic erythrocytes bearing micronuclei,"[3]; males, negative control 0.6",11.0
same,PCE/NCE ratio,"[3]; males, negative control 0.90",0.77

# Reference: US8147444B2, “Methods of treating or preventing peritonitis with oxidative reductive potential water solution” (Oculus Innovative Sciences, Inc., priority 2006, dated 2012)
